This is an account of results in patent US20240174744A1, “METHODS OF TREATMENT USING PROTEIN BINDERS TO IRHOM2 EPITOPES” (SCIRHOM GMBH, priority 2021, published 2024).

Molecules are shown by their SMILES.

For the experiment, the system named is LPS-induced release of TNFα from human macrophages from healthy donors. Put plainly: ELISA-based TNFα release assay, human macrophages from healthy donors. It counts as cell-based. The conditions noted are these: Macrophage, recombinant murine antibodies, final concentration of 10 µg/ml, Batimastat 10 μM, LPS 5 ng/ml, 2 hours. The method, then:
Complementary to Example 32 described above, ELISA-based TNFα release assays were performed to test the inhibitory effects of the antibodies on LPS-induced release of endogenous TNFα from human macrophages from healthy donors.
To obtain human macrophages, peripheral blood mononuclear cells (PBMCs) from 4 healthy donors were used. Cells from 5 ml human blood were resuspended in 20 ml of DMEM medium (Corning, USA) supplemented with 10% FCS (Atlanta Biological, USA) and Penicillin/Streptomycin (Corning, USA) (DMEM/FCS) and were then incubated on two 10 cm petri dishes (Thermo Fisher, USA) at 37° C., 5% CO2 for 3h. Non-adherent cells were subsequently removed and 6 ml of DMEM/FCS supplemented with 10 ng/ml human MCSF (Peprotech, USA) (DMEM/FCS/MCSF) was added per plate. Both plates were incubated at 37° C., 5% CO2 for 2 days, then 2 ml of DMEM/FCS/MCSF was added to each plate on day 2 and 4. On day 5, all medium was removed and attached cells were washed once with 5 ml PBS (Corning, USA). 2 ml of Accutase (Promocell, USA) solution was added to each plate and incubated at 37° C. for 15 min. 10 ml of DMEM/FCS was added to each plate and detached cells were collected in a 15 ml Falcon tube. Cells were subsequently pelleted in a tabletop centrifuge (Eppendorf, USA) at 1,500 rpm for 5 min. […] 10 μl from this cell suspension was manually counted in a hemocytometer (Thermo Fisher, USA). […]

In the case of `CNC(=O)[C@H](Cc1ccccc1)NC(=O)[C@H](CC(C)C)[C@H](CSc1cccs1)C(=O)NO` [Batimastat], the inhibition (as a rule, the relative decrease from the control value, in per cent) at 10 µM stood at 68.3%.
